Results on 1 compound are retold here after paper PMC12486159 (American journal of physiology. Renal physiology, 2025).

The target in this assay is human FATP2 (Homo sapiens, UniProt O14975). Kind of assay: BODIPY-FA uptake in FATP2-overexpressing HPCT cells, fluorescence plate reader. In kind it is cell-based.
Chain of human FATP2 (O14975 whole entry): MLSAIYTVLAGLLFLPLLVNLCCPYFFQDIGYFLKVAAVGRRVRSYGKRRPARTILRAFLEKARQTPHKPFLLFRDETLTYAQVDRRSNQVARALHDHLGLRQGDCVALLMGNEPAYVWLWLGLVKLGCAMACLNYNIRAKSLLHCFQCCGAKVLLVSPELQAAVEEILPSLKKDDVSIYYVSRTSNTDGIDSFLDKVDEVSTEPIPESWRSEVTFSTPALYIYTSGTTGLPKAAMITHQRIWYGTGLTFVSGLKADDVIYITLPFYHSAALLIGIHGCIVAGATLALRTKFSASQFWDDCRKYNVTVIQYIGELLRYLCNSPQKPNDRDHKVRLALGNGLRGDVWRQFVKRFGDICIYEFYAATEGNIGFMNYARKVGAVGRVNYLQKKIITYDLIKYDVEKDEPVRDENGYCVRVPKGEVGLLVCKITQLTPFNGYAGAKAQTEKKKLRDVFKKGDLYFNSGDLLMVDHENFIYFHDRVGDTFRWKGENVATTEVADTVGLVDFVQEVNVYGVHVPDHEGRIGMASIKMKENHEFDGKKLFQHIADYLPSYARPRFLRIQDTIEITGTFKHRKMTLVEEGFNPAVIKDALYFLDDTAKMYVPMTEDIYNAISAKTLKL

As for `O=C1Nc2ccc(Br)cc2C12NN=C(c1ccccc1)S2` (stereo not shown) [Lipofermata], half-maximal inhibition (IC50) required 5 µM. In other words, the single-digit micromolar range.
